Measurements from US11076595B2, “1-(n,n-disubstituted carbamoyl) 4-(substituted sulfonyl)triazolin-5-one derivative, 4-(n,n-disubstituted carbamoyl) 1-(substituted sulfonyl)triazolin-5-one derivative, and herbicide containing said derivative as active ingredient” (HOKKO CHEMICAL INDUSTRY CO., LTD., priority 2017, dated 2021).

Key:
Type in all cases: in vivo
[1] = system: crabgrass; test: Test Example 3: herbicidal effect test by soil treatment in upland field; details: upland field soil treatment 1 day after sowing; 120 g/10a; evaluated 14 days after treatment
Protocol: (§1) This test was performed with two replications per one formulation concentration plot, and 14 days after the formulation treatments, the weed suppression rate (%) was determined according to the following equation (Math. 1). Weed suppression rate (%)=(1−an average dry weight (g) of plants in treated plots/an average dry weight (g) of plants in untreated plots)×100 [Math. 1]
(§2) A pot having a size of 36 cm^2 was filled with field soil (alluvial soil) and after uniformly mixing the soil of the surface layer of 1 cm with 20 grains of each weed seed of crabgrass, Echinochloa crus-galli, Chenopodium album and Amaranthus viridis, the surface layer was pressed lightly. One day after the sowing, an emulsifiable concentrate prepared according to Formulation Example 5 by using the compound shown in Table 7 below was diluted with water, and the water-diluted formulation was sprayed on the soil surface at a ratio of 100 liter per 10 are. The application rate of the active ingredient, by conversion, corresponded to 120 g per 10 are. Fourteen days after the formulation treatment, the herbicidal effect was evaluated by the same criteria as in Test Example 1.

[2] = system: Amaranthus viridis; test: as above; details: upland field soil treatment 1 day after sowing; 120 g/10a; evaluated 14 days after treatment
Protocol: as §1, §2

[3] = system: Chenopodium album; test: as above; details: upland field soil treatment 1 day after sowing; 120 g/10a; evaluated 14 days after treatment
Protocol: as §1, §2

[4] = system: Echinochloa crus-galli; test: as above; details: upland field soil treatment 1 day after sowing; 120 g/10a; evaluated 14 days after treatment
Protocol: as §1, §2

[5] = system: Lindernia pyxidaria; test: Test Example 1: herbicidal effect test by soil treatment in paddy field; details: 120 g/10a, paddy soil treatment just after sowing, 14 days after treatment
Method in brief: (§3)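 Seeds (30 per species) are sown 0–1 cm deep in puddled, fertilized paddy soil, then flooded to about 3 cm. Water-diluted emulsifiable concentrate is dripped in at once, giving 120 g active ingredient per 10 are. Plants grow 14 days in a glass greenhouse before dry weights are compared with untreated.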

[6] = system: Echinochloa crus-galli; test: as above; details: 120 g/10a, paddy soil treatment just after sowing, 14 days after treatment
Method in brief: as §3

[7] = system: Monochoria vaginalis; test: as above; details: 120 g/10a, paddy soil treatment just after sowing, 14 days after treatment
Method in brief: as §3

[8] = system: Scirpus juncoides; test: as above; details: 120 g/10a, paddy soil treatment just after sowing, 14 days after treatment
Method in brief: as §3

[9] = system: crabgrass; test: Test Example 4: herbicidal effect test by foliage treatment in upland field; details: upland field foliage treatment 7 days after sowing; 120 g/10a; evaluated 14 days after treatment
Method in brief: (§4)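 Suppression rate (%) derives from mean plant dry weight in treated versus untreated plots, measured 14 days after spraying, with two replications per plot. The emulsifiable concentrate was applied 7 days after sowing at 120 g active ingredient per 10 are.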

[10] = system: Amaranthus viridis; test: as above; details: upland field foliage treatment 7 days after sowing; 120 g/10a; evaluated 14 days after treatment
Method in brief: as §4

[11] = system: Chenopodium album; test: as above; details: upland field foliage treatment 7 days after sowing; 120 g/10a; evaluated 14 days after treatment
Method in brief: as §4

[12] = system: Echinochloa crus-galli; test: as above; details: upland field foliage treatment 7 days after sowing; 120 g/10a; evaluated 14 days after treatment
Method in brief: as §4

[13] = system: Lindernia pyxidaria; test: Test Example 2: herbicidal effect test by treatment during growing period in paddy field; details: treatment 7 days after sowing, 120 g/10a, evaluated 14 days after treatment
Method in brief: (§5)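 Read-out is weed suppression (%), 1 − mean dry weight treated/untreated ×100, taken 14 days after treatment with duplicate plots. Treatment: water-diluted emulsifiable concentrate added dropwise to flooded paddy-soil pots 7 days post-sowing at 120 g active ingredient per 10 are.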

[14] = system: Echinochloa crus-galli; test: as above; details: treatment 7 days after sowing, 120 g/10a, evaluated 14 days after treatment
Method in brief: as §5

[15] = system: Monochoria vaginalis; test: as above; details: treatment 7 days after sowing, 120 g/10a, evaluated 14 days after treatment
Method in brief: as §5

[16] = system: Scirpus juncoides; test: as above; details: treatment 7 days after sowing, 120 g/10a, evaluated 14 days after treatment
Method in brief: as §5

SMILES	herbicidal effect (weed suppression rate), Crabgrass [1]	herbicidal effect (weed suppression rate), Amaranthus viridis [2]	herbicidal effect (weed suppression rate), Chenopodium album [3]	herbicidal effect (weed suppression rate), Echinochloa crus-galli [4]	weed suppression rate, Lindemia pyxidaria [5]	weed suppression rate, Echinochloa crus-galli [6]	weed suppression rate, Monochoria vaginalis [7]	weed suppression rate, Scirpus juncoides [8]	herbicidal effect (weed suppression rate), Crabgrass [9]	herbicidal effect (weed suppression rate), Amaranthus viridis [10]	herbicidal effect (weed suppression rate), Chenopodium album [11]	herbicidal effect (weed suppression rate), Echinochloa crus-galli [12]	weed suppression rate, Lindemia pyxidaria [13]	weed suppression rate, Echinochloa crus-galli [14]	weed suppression rate, Monochoria vaginalis [15]	weed suppression rate, Scirpus juncoides [16]
CCC(C)S(=O)(=O)n1cnn(C(=O)N(c2ccc(F)cc2F)C(C)C)c1=O (centres unmarked) [Compound 1-101]	90%	90%	80%	80%	80%	90%	80%	90%	90%	90%	80%	80%	80%	90%	80%	90%
CC(C)N(C(=O)n1ncn(S(=O)(=O)N(C)C)c1=O)c1ccc(F)cc1F [Compound 1-1103]	100%	60%	60%	100%	80%	90%	80%	90%	90%	90%	80%	80%	80%	90%	80%	90%
CC(C)N(C(=O)n1ncn(S(=O)(=O)C2CC2)c1=O)c1c(F)cccc1F [Compound 1-200]	100%	40%	40%	100%	100%	100%	80%	100%	100%	80%	70%	100%	80%	100%	90%	100%
CC(C)N(C(=O)n1ncn(S(=O)(=O)C2CC2)c1=O)c1cccc(F)c1F [Compound 1-198]	100%	100%	100%	100%	100%	100%	100%	100%	100%	80%	80%	100%	100%	100%	100%	80%
CC(C)N(C(=O)n1ncn(S(=O)(=O)C2CC2)c1=O)c1ccc(F)cc1 [Compound 1-171]	100%	90%	100%	100%	100%	100%	100%	100%	90%	90%	80%	80%	90%	100%	90%	90%
CC(C)N(C(=O)n1ncn(S(=O)(=O)C2CCCCC2)c1=O)c1ccc(F)cc1 [Compound 1-298]	90%	90%	80%	80%	90%	90%	80%	90%	90%	90%	80%	80%	90%	90%	90%	90%
CC(C)N(C(=O)n1ncn(S(=O)(=O)C2CCCC2)c1=O)c1ccc(F)cc1F [Compound 1-284]	90%	60%	90%	90%	100%	100%	100%	100%	90%	90%	80%	80%	90%	90%	90%	90%
C=CS(=O)(=O)n1cnn(C(=O)N(c2ccc(F)cc2F)C(C)C)c1=O [Compound 1-142]	100%	100%	100%	100%	100%	100%	100%	100%	90%	90%	80%	80%	80%	90%	80%	90%
